The GI50 is the concentration that inhibits growth by half.

The values that follow come from patent US6569638B1, “Method for screening compounds for the treatment of neoplasia” (Cell Pathways, Inc, priority 2000, dated 2003).

Where two headings read alike, the source gives them in different places.

Data set [1] has as its system PKG in SW480 colon cancer cells. The data set is described as follows: PKG assay of drug-treated cell lysates (GST-cGB-PDE5 solid phase substrate). In kind it is cell-based, human. Conditions: 48 hrs, exisulind 200, 400, 600 μM, E4021 0.1, 1, 10 μM, with and without added cGMP. The protocol:
To test the effect of cGMP-specific PDE inhibition on neoplasia containing the APC mutation, SW480 colon cancer cells were employed. SW 480 is known to contain the APC mutation. About 5 million SW480 cells in RPMI 5% serum are added to each of 8 dishes:
2-10 cm dishes—30 μL DMSO vehicle control (without drug),
3-10 cm dishes—200 μM, 400 μM, 600 μM exisulind in DMSO, and
The dishes are incubated for 48 hrs at 37° C. in 5% CO2 incubator.
The liquid media are aspirated from the dishes (the cells will attach themselves to the dishes). The attached cells are washed in each dish with cold PBS, and 200 μL cell lysis buffer (i.e., 50 mM Tris-HCl, 1% NP-40, 150 mM NaCl, 1 mM EDTA, 1 mM Na3VO4, 1 mM NaF, 500 μM IBMX with proteinase inhibitors) is added to each dish. Immediately after the cell lysis buffer is added, the lysed cells are collected by scraping the cells off each dish. The cell lysate from each dish is transferred to a microfuge tube, and the microfuge tubes are incubated at 4° C. for 15 minutes while gently agitating the microfuge tubes to allow the cells to lyse completely. […]
For each control or drug cell lysate sample to be evaluated, the reaction is started by adding phosphorylation buffer containing 10 μCi ^32P-γ-ATP solution (200 μM ATP, 4.5 mM MgCl; 5 mM KH2PO4; 5 mM K2HPO4;) to each mixture. […]

Data set [2] relates to polyp and normal colonic tissues. The data set is described as follows: Apoptosis rates in paired biopsies of APC patients. In kind it is in vivo, human.
Data set [3] is classed as in vivo. Conditions: for body weight gain: rat, in vivo. An excerpt: Thus, on a single-dose basis, Compound B is not acutely toxic.
Data set [4] concerns SW-480 colon adenocarcinoma cells. Description: Apoptosis induction determined by morphology. In kind it is cell-based, human. An excerpt: Apoptosis occurs naturally during normal tissue turnover and during embryonic development of organs and limbs. Apoptosis also is induced by cytotoxic T-lymphocytes and natural killer cells, by ionizing radiation and by certain chemotherapeutic drugs. Inappropriate regulation of apoptosis is thought to play an important role in many pathological conditions including cancer, AIDS, or Alzheimer's disease, etc. Compounds can be screened for induction of apoptosis using cultures of tumor cells maintained under conditions as described above. Treatment of cells with test compounds involves either pre- or post-confluent cultures and treatment for two to seven days at various concentrations. Apoptotic cells are measured in both the attached and “floating” compartments of the cultures. Both compartments are collected by removing the supernatant, trypsinizing the attached cells, and combining both preparations following a centrifugation wash step (10 minutes, 2000 rpm). The protocol for treating tumor cell cultures with sulindac and related compounds to obtain a significant amount of apoptosis has been described in the literature. (See, Piazza, G. A., et al., Cancer Research, 55:31 10-16, 1995, which is incorporated herein by reference). The novel features include collecting both floating and attached cells, identification of the optimal treatment times and dose range for observing apoptosis, and identification of optimal cell culture conditions.
Following treatment with a compound, cultures can be assayed for apoptosis and necrosis by florescent microscopy following labeling with acridine orange and ethidium bromide. The method for measuring apoptotic cell number has previously been described by Duke & Cohen, “Morphological And Biochemical Assays Of Apoptosis,” Current Protocols In Immunology, Coligan et al., eds., 3.17.1-3.17.16 (1992, which is incorporated herein by reference).
For example, floating and attached cells can be collected by trypsinization and washed three times in PBS. Aliquots of cells can be centrifuged. […]

In a further data set the test system is K-562. Description: Neutral red growth inhibition. In kind it is cell-based, human. As to conditions: K-562, Leukemia, HCl salt. The protocol:
(§1) Compound B's activity is not confined to activity against colon cancer cell lines or animal models of colon cancer. It has a broad range of anti-neoplastic effects in various neoplastic cell lines. Various types of human cancer cell lines were propagated under sterile conditions in RPMI 1640 medium with 10% fetal bovine serum, 2 mM L-glutamine and sodium bicarbonate. To determine growth inhibitory effects of Compound B, cells were seeded in 96-well plates at a density of 1000 cells per well. […] The effect of the drug on tumor cell growth was determined using the neutral red cytotoxicity assay following five days of continuous treatment. Neutral red is a dye that is selectively taken up by viable cells by an ATP-dependent transport mechanism.

The test system of another data set is PANC-1. The data set is described as follows: Neutral red growth inhibition. In kind it is cell-based, human. As to conditions: PANC-1, Pancreas, HCl salt. The protocol: as §1
Another data set relates to RPMI-8226. Description: Neutral red growth inhibition. Format: cell-based, human. As to conditions: RPMI-8226, Myeloma, HCl salt. The procedure:
as §1

Take `CC1=C(CC(=O)O)c2cc(F)ccc2/C1=C\c1ccc(S(C)(=O)=O)cc1` [exisulind, 5-fluoro-2-methyl-1-(p-methylsulfonylbenzylidene)-3-indenylacetic acid]: the “PKG activity relative to control” value in data set [1] is on record as “causes PKG activity to increase in a dose-dependent manner”. Moreover, in data set [2], the “apoptosis rates in polyp versus normal colonic tissues” value is listed as “increased apoptosis rates in polyp, but not normal colonic tissues”.
Regarding `CC1=C(CC(=O)NCc2ccccc2)c2cc(F)ccc2/C1=C\c1ccncc1.Cl` [Compound B, (Z)-5-fluoro-2-methyl-(4-pyridylidene)-3-(N-benzyl)indenylacetamide hydrochloride], the body weight gain result was “reduced body weight gain” in data set [3] (ip, 1000 mg/kg) and “body weight gains were slightly reduced” in data set [3] (po, 4000 mg/kg). Besides, the “intraperitoneal LD50” value in data set [3] (rats) was “greater than 1000 mg/kg”. Also, the “oral LD50” value in data set [3] (rats) is on record as more than 4000 mg/kg. Also, the signs of toxicity entry in data set [3] (rats, single oral doses up to and including 2000 mg/kg, 0.5% carboxy-methylcellulose vehicle) is reported as “no observable signs of toxicity”. The “% Apoptosis” value was 16% in data set [4] (0.35 μM), 27% in data set [4] (0.7 μM) and 88% in data set [4] (1.5 μM). The GI50 in the data set on K-562 amounted to 1800 nM; in the data set on PANC-1, 2200 nM; in the data set on RPMI-8226 it was 1200 nM.
